Measured values reported in the supplement of paper PMC8882468.

Legend:
Test in all cases: CTG-3D luminescence at 96 h relative to day-0 seeding control (ratio to day 0); higher = more growth / less cytotoxicity; PDxO 3D drug screen, 96 h, CTG-3D normalised to day-0 seeding control.
HCI-001 = test system: HCI-001 (organoid from a triple-negative breast cancer xenograft)
HCI-003.E2 = test system: HCI-003.E2 (organoid from an ER-positive breast cancer xenograft)
HCI-012 = test system: HCI-012 (organoid from a breast cancer xenograft)
HCI-024 = test system: HCI-024 (organoid from a breast cancer xenograft)
HCI-027 = test system: HCI-027 (organoid from a triple-negative breast cancer xenograft)

NC(=O)Nc1cc(-c2cccc(F)c2)sc1C(=O)N[C@H]1CCCNC1 [AZD7762]
CTG-3D luminescence at 96 h
Conditions | 12.5 pM | 0.00025 µM | 0.005 µM | 0.1 µM | 1 µM | 10 µM | 100 µM | 625 fM
HCI-001, days in culture: 240 | 1.67 | 0.879 | 1.07 | 1 | 0.663 | 0.189 | 0.00603 | 1.14
HCI-001, days in culture: 260 | 1.93 | 1.02 | 1.44 | 0.935 | 0.787 | 0.243 | 0.00469 | 1.07
HCI-001, days in culture: 269 | 1.68 | 1.84 | 1.41 | 1.25 | 0.48 | 0.388 | -0.00671 | 1.59
HCI-001, days in culture: 327 | 1.38 | 1.77 | 1.85 | 1.38 | 0.567 | 0.168 | 0.00741 | 1.6
HCI-001, days in culture: 346 | 1.38 | 1.49 | 1.23 | 0.907 | 0.392 | 0.184 | 0.0108 | 1.21
HCI-001, days in culture: 364 | 1.53 | 1.16 | 1.51 | 1.03 | 0.466 | 0.201 | 0.00492 | 1.71
HCI-012, days in culture: 143 | 2.11 | 2.03 | 2.04 | 2.67 | 1.75 | 0.0896 | 0.000673 | 1.69
HCI-012, days in culture: 162 | 2.58 | 2.41 | 1.89 | 2.83 | 1.99 | 0.16 | -5.12e-05 | 3.15
HCI-012, days in culture: 201 | 2.51 | 2.18 | 1.69 | 1.39 | 2.14 | 0.141 | 0.00358 | 1.9
HCI-024, days in culture: 105 | 1.28 | 1.48 | 1.42 | 0.635 | 0.236 | 0.228 | 0.00249 | 1.9
HCI-024, days in culture: 122 | 1.65 | 2.38 | 1.93 | 0.853 | 0.308 | 0.273 | 0.00352 | 2.89
HCI-024, days in culture: 163 | 1.95 | 1.96 | 2.02 | 1.27 | 0.309 | 0.267 | 0.00535 | 2.34
HCI-027, days in culture: 176 | 1.95 | 1.34 | 2.55 | 0.208 | 0.0981 | 0.0356 | -0.00164 | 2.05
HCI-027, days in culture: 194 | 1.41 | 1.22 | 1.34 | 0.159 | 0.0911 | 0.0685 | -0.00154 | 1.61
HCI-027, days in culture: 201 | 1.43 | 2.16 | 2.35 | 0.166 | 0.0767 | 0.078 | -1.51e-05 | 1.6

HCI-003.E2
Conditions | CTG-3D luminescence at 96 h
12.5 pM | 2.21
0.00025 µM | 2.59
0.005 µM | 1.96
0.1 µM | 1.78
1 µM | 1.12
10 µM | 0.769
100 µM | 0.0016
625 fM | 2.21

NC1(C(=O)N[C@@H](CCO)c2ccc(Cl)cc2)CCN(c2nc[nH]c3nccc2-3)CC1 [capivasertib]
CTG-3D luminescence at 96 h
Conditions | 12.5 pM | 0.00025 µM | 0.005 µM | 0.1 µM | 1 µM | 10 µM | 100 µM | 625 fM
HCI-001, days in culture: 240 | 1.55 | 0.986 | 1.1 | 0.601 | 0.604 | 0.407 | 0.382 | 1.02
HCI-001, days in culture: 260 | 2.26 | 1.47 | 1.9 | 1.32 | 0.652 | 0.532 | 0.449 | 1.71
HCI-001, days in culture: 269 | 1.69 | 1.5 | 1.82 | 1.34 | 0.734 | 0.758 | 0.593 | 1.71
HCI-001, days in culture: 327 | 1.71 | 1.3 | 1.7 | 1.35 | 0.84 | 0.552 | 0.71 | 1.81
HCI-001, days in culture: 346 | 1.49 | 1.36 | 1.35 | 1 | 0.937 | 0.678 | 0.809 | 1.33
HCI-001, days in culture: 364 | 1.6 | 1.21 | 1.21 | 0.928 | 0.847 | 0.605 | 0.375 | 1.47
HCI-012, days in culture: 143 | 2.02 | 1.95 | 1.78 | 2.01 | 1.55 | 0.931 | 0.0899 | 1.91
HCI-012, days in culture: 162 | 2.5 | 2.27 | 1.88 | 2.92 | 1.51 | 1.15 | 0.236 | 3.5
HCI-012, days in culture: 201 | 2.73 | 2.11 | 1.59 | 1.5 | 1.61 | 0.543 | 0.269 | 1.74
HCI-024, days in culture: 105 | 1.73 | 1.84 | 1.39 | 1.47 | 0.926 | 0.839 | 0.401 | 2.06
HCI-024, days in culture: 122 | 2.22 | 2.39 | 1.78 | 1.68 | 1.09 | 1.35 | 0.518 | 2.23
HCI-024, days in culture: 163 | 2.16 | 1.74 | 1.93 | 2.41 | 1.56 | 1.32 | 0.629 | 2.73
HCI-027, days in culture: 176 | 2.31 | 1.3 | 2.32 | 1.05 | 1.12 | 0.758 | 0.0952 | 2.13
HCI-027, days in culture: 194 | 1.58 | 1.48 | 1.43 | 1.57 | 1.36 | 1.2 | 0.0815 | 1.55
HCI-027, days in culture: 201 | 1.67 | 1.8 | 1.88 | 2.17 | 1.71 | 0.976 | 0.0625 | 1.6

HCI-003.E2
Conditions | CTG-3D luminescence at 96 h
12.5 pM | 2.4
0.00025 µM | 2.22
0.005 µM | 2.03
0.1 µM | 1.76
1 µM | 0.832
10 µM | 0.479
100 µM | 0.0376
625 fM | 2.12

O=C(/C=C/c1cccnc1)NCCCCC1CCN(C(=O)c2ccccc2)CC1 [FK866]
CTG-3D luminescence at 96 h
Conditions | 12.5 pM | 0.00025 µM | 0.005 µM | 0.1 µM | 1 µM | 10 µM | 100 µM | 625 fM
HCI-001, days in culture: 240 | 1.51 | 1.26 | 0.813 | 0.167 | 0.113 | 0.0983 | 0.134 | 1.79
HCI-001, days in culture: 260 | 2.05 | 0.894 | 0.497 | 0.126 | 0.107 | 0.113 | 0.125 | 1.44
HCI-001, days in culture: 269 | 1.52 | 1.61 | 1.1 | 0.0874 | 0.0522 | 0.0578 | 0.0645 | 1.6
HCI-001, days in culture: 327 | 1.45 | 0.495 | 0.617 | 0.125 | 0.0812 | 0.0548 | 0.0869 | 1.78
HCI-001, days in culture: 346 | 1.25 | 1.28 | 0.416 | 0.063 | 0.0715 | 0.0541 | 0.128 | 1.08
HCI-001, days in culture: 364 | 1.18 | 1.03 | 0.913 | 0.0658 | 0.0511 | 0.0476 | 0.0948 | 1.5
HCI-012, days in culture: 143 | 1.77 | 2.17 | 0.328 | 0.0872 | 0.0769 | 0.0863 | 0.175 | 1.84
HCI-012, days in culture: 162 | 2.18 | 2.1 | 0.129 | 0.0723 | 0.0448 | 0.085 | 0.127 | 2.72
HCI-012, days in culture: 201 | 2.67 | 0.11 | 0.33 | 0.0389 | 0.128 | 0.0435 | 0.115 | 1.67
HCI-024, days in culture: 105 | 1.87 | 1.72 | 0.265 | 0.2 | 0.157 | 0.205 | 0.272 | 2.1
HCI-024, days in culture: 122 | 2.43 | 2.32 | 0.648 | 0.179 | 0.209 | 0.222 | 0.172 | 2.91
HCI-024, days in culture: 163 | 1.91 | 2.21 | 0.305 | 0.221 | 0.181 | 0.166 | 0.306 | 1.89
HCI-027, days in culture: 176 | 1.98 | 1.8 | 0.365 | 0.104 | 0.104 | 0.0553 | 0.082 | 2.22
HCI-027, days in culture: 194 | 1.77 | 1.47 | 0.26 | 0.049 | 0.0511 | 0.0527 | 0.0718 | 1.63
HCI-027, days in culture: 201 | 1.55 | 1.66 | 0.166 | 0.0645 | 0.0296 | 0.0561 | 0.0649 | 1.74

HCI-003.E2
Conditions | CTG-3D luminescence at 96 h
12.5 pM | 2.05
0.00025 µM | 2.19
0.005 µM | 0.395
0.1 µM | 0.38
1 µM | 0.268
10 µM | 0.302
100 µM | 0.113
625 fM | 1.51

C=CCn1c(=O)c2cnc(Nc3ccc(N4CCN(C)CC4)cc3)nc2n1-c1cccc(C(C)(C)O)n1 [adavosertib]
CTG-3D luminescence at 96 h
Conditions | 12.5 pM | 0.00025 µM | 0.005 µM | 0.1 µM | 1 µM | 10 µM | 100 µM | 625 fM
HCI-001, days in culture: 240 | 1.67 | 0.913 | 1.22 | 0.745 | 0.618 | 0.244 | 0.152 | 1.51
HCI-001, days in culture: 260 | 1.62 | 1.31 | 2.32 | 1.44 | 1.04 | 0.27 | 0.15 | 1.14
HCI-001, days in culture: 269 | 1.43 | 1.7 | 1.59 | 1.8 | 0.496 | 0.254 | 0.087 | 1.65
HCI-001, days in culture: 327 | 1.54 | 1.49 | 1.68 | 1.68 | 1.18 | 0.193 | 0.182 | 1.68
HCI-001, days in culture: 346 | 1.44 | 1.34 | 1.22 | 1.52 | 1.48 | 0.163 | 0.121 | 1.33
HCI-001, days in culture: 364 | 1.41 | 1.15 | 1.37 | 1.17 | 0.983 | 0.13 | 0.0626 | 1.6
HCI-012, days in culture: 143 | 1.94 | 1.86 | 2.1 | 2.56 | 2.11 | 0.226 | 0.0167 | 2.06
HCI-012, days in culture: 162 | 2.21 | 2.27 | 2.02 | 3.54 | 2.56 | 0.304 | 0.0282 | 3.03
HCI-012, days in culture: 201 | 2.67 | 2.07 | 1.6 | 1.66 | 2.25 | 0.091 | 0.0326 | 1.71
HCI-024, days in culture: 105 | 1.61 | 1.66 | 1.14 | 1.44 | 0.852 | 0.412 | 0.179 | 2.06
HCI-024, days in culture: 122 | 1.86 | 2.07 | 1.99 | 2.01 | 1.38 | 0.414 | 0.145 | 2.52
HCI-024, days in culture: 163 | 2.11 | 2.21 | 1.86 | 2.44 | 1.82 | 0.466 | 0.225 | 2.56
HCI-027, days in culture: 176 | 1.72 | 1.45 | 2.67 | 1.21 | 0.185 | 0.0765 | 0.0542 | 2.5
HCI-027, days in culture: 194 | 1.64 | 1.52 | 1.33 | 1.65 | 0.158 | 0.0827 | 0.0536 | 1.42
HCI-027, days in culture: 201 | 1.68 | 1.69 | 2.08 | 2.23 | 0.149 | 0.0964 | 0.0691 | 1.7

HCI-003.E2
Conditions | CTG-3D luminescence at 96 h
12.5 pM | 2.18
0.00025 µM | 2.35
0.005 µM | 2.25
0.1 µM | 2.28
1 µM | 1.54
10 µM | 0.668
100 µM | 0.388
625 fM | 2.01
